Assay [1] relates to Lin-CD45+CD24- monocyte/macrophages from MC38-Ova tumors. The assay is described as follows: Tumor-associated monocyte/macrophages cultured with Metyrapone, corticosterone ELISA. The assay is classed as cell-based, mouse. The settings on record: 24 hrs culture ex vivo. The procedure:
(§1) In vivo and in vitro modulation of glucocorticoid synthesis. MC38-Ova^dim was implanted in wild type C57BL/6 mice and either Metyrapone (50 mg/kg; Fisher Scientific), Corticosterone (2.5 mg/kg) or vehicle control PBS (Gibco) was administered intra-tumorally on Day 5, 6, 7 and 9 post-tumor implantation. In some experiments, MC38-Ova^dim tumor explants or sorted lin^−CD45^+CD24^− cells were cultured in the presence or absence of Metyrapone (25 or 50 ng/ml) for 24 hrs. Supernatants were harvested and corticosterone measured by ELISA (Arbor Assays).

In assay [2] the test system is MC38-Ova colon carcinoma. The assay is described as follows: Intra-tumoral Metyrapone in MC38-Ova tumor-bearing mice, tumor growth. Particulars: 50 mg/kg, Days 5, 6, 7 and 9. The assay is classed as in vivo, mouse. The source says: Tumor cell lines used. MC38-Ova^dim was generously provided by Mark Smyth. B16F10 was purchased from ATCC. MC38 was generously provided by Carla Rothlin. MC38-Ova^dim-GFP was generated in Applicants lab as follows, HEK293T cells were transfected with pLenti PGK GFP Puro plasmid. The resulting Lentivirus was then used to infect Mc38Ova^dim cell line to generate a GFP expressing cell line. MC38-Ova^dim (0.5×10^6) or B16F10 (0.25×10^6) and MC38-Ova^dim-GFP (0.5×10^6) cells were implanted subcutaneously into the right flank of mice.
Tumor experiments. Tumor size was measured in two dimensions by caliper and is expressed as the product of two perpendicular diameters. In some experiments, mice were treated with anti-PD-1 (RMP1-14) ([…]) antibodies or control immunoglobulin (Rat IgG2a) i.p. on days 5, 8 and 11 post-tumor implantation. Mice were then monitored for tumor growth. […] Antibodies were administered bi-weekly for a total of 5 treatments (n=9-10).
In vivo and in vitro modulation of glucocorticoid synthesis. MC38-Ova^dim was implanted in wild type C57BL/6 mice and either Metyrapone (50 mg/kg; Fisher Scientific), Corticosterone (2.5 mg/kg) or vehicle control PBS (Gibco) was administered intra-tumorally on Day 5, 6, 7 and 9 post-tumor implantation. […] Supernatants were harvested and corticosterone measured by ELISA (Arbor Assays).

Assay [3] relates to CD8+ TILs. The assay is described as follows: Flow cytometry of CD8+ TILs from Metyrapone-treated tumor-bearing mice. The class given is in vivo, mouse. Particulars: intra-tumoral Metyrapone, early stage of tumor progression. The procedure:
as §1, with “Isolation of TILs. TILs were isolated by dissociating tumor tissue in the presence of collagenase D (2.5 mg/ml) for 20 minutes prior to centrifugation on a discontinuous Percoll gradient (GE Healthcare). Isolated cells were then used in various assays. Flow cytometry. […] Antigen specific […] […] In vivo” for “In vivo”, “or sorted lin^-CD45^+CD24^- cells were” for “or sorted lin^−CD45^+CD24^− cells were”
For orientation: In flow cytometry, cells or beads pass a laser one at a time.

Assay [4] deals with MC38-Ova tumor explants. The assay is described as follows: MC38-Ova tumor explants cultured with Metyrapone, corticosterone ELISA. The class given is cell-based, mouse. The settings on record: 24 hrs, Metyrapone 25 or 50 ng/ml. The method, then: as §1
In general terms: In an ELISA, binding on a coated surface is turned into a signal by an enzyme label.

The test system of assay [5] is MC38-Ova dim colon carcinoma. Description: Intra-tumoral corticosterone in LysMCre+ Cyp11a1fl/fl mice bearing MC38-Ova dim, tumor progression. The assay is classed as in vivo, mouse. The settings on record: intra-tumoral corticosterone 2.5 mg/kg, Days 5, 6, 7 and 9.
Experimental: Tumor experiments. Tumor size was measured in two dimensions by caliper and is expressed as the product of two perpendicular diameters. […] Mice were then monitored for tumor growth. […] In vivo and in vitro modulation of glucocorticoid synthesis. MC38-Ova^dim was implanted in wild type C57BL/6 mice and either Metyrapone (50 mg/kg; Fisher Scientific), Corticosterone (2.5 mg/kg) or vehicle control PBS (Gibco) was administered intra-tumorally on Day 5, 6, 7 and 9 post-tumor implantation.
Assay [6] has as its system CD8+ T cells. Description: RNA-Seq of naive CD8+ T cells cultured with Dex (GC), IL-27 or GC+IL-27 (Tables 1, 2A, 2B, 3, 5-8). The assay is classed as cell-based, mouse.
Assay [7] deals with CD8+ T cells. The assay is described as follows: Quantitative RT-PCR of Prdm1, Nfil3 and Tcf7 in GC, IL-27 or GC+IL-27 treated CD8+ T cells. The assay is classed as cell-based, mouse. Particulars: qPCR. The procedure:
Cell culture and treatment with glucocorticoid.
Quantitative PCR. Total RNA was extracted using RNeasy columns (Qiagen) or PicoPure™ RNA Isolation Kit (Thermo Fischer). Reverse transcription of mRNA was performed in a thermal cycler (Bio-Rad) using iScript cDNA Synthesis Kit (Bio-Rad) or SuperScript™ VILO™ cDNA Synthesis Kit (Thermo Fischer). qPCR was performed in the Vii7 Real-Time PCR system (Applied Biosystems) using the primers for Taqman gene expression (Applied Biosystems). Data were normalized to the expression of Actb.
In general terms: Real-time PCR tracks product formation cycle by cycle.

The mark [8] stands for this setting: treated CD8+ T cells, three values per condition, listed as Dex.
Setting [9] is: treated CD8+ T cells, three values per condition.

These results are taken from US11793787B2, “Methods and compositions for enhancing anti-tumor immunity by targeting steroidogenesis” (The Broad Institute, Inc., priority 2019, dated 2023).

“And” between values parts separate entries of the source, which are not always exact repeats. Equal entries are not always repeated. “Also recorded” adds a separate entry of the source.

Regarding `CC(C)(C(=O)c1cccnc1)c1cccnc1` [Metyrapone], the “corticosterone production by tumor-associated monocyte/macrophages” value in assay [1] was “dramatically reduced; also recorded: significantly inhibited”. For the same molecule, in assay [2], the tumor growth result was “dramatic tumor growth inhibition”. The “functional properties of CD8+ TILs compared with loss of GR in CD8+ T cells” value in assay [3] is “resembled that of CD8^+ TILs from E8i-Cre^+ Nr3c1^fl/fl mice and LysM-Cre^+ Cyp11a1^fl/fl mice”; in assay [3] (listed as metyrapone) it was “phenocopies CD8 GR cKO”. Further, in assay [4], the “level of corticosterone in tumor explant supernatants” value was “reduced and less”.

Take `C[C@]12C[C@H](O)[C@H]3[C@@H](CCC4=CC(=O)CC[C@@]43C)[C@@H]1CC[C@@H]2C(=O)CO` [corticosterone]: in assay [5], the “control of tumor progression in LysMCre+ Cyp11a1fl/fl mice” value is reported as “abrogated”.

`C[C@@H]1C[C@H]2[C@@H]3CCC4=CC(=O)C=C[C@]4(C)[C@@]3(F)[C@@H](O)C[C@]2(C)[C@@]1(O)C(=O)CO` [dexamethasone]: the “number of GC-induced genes overlapping with the T cell dysfunction signature” value in assay [6] (GC versus vehicle control, Table 8) stood at 463. In assay [6] (setting [8]), the 1124 expression levels is 156.6 and 224.35 and 191; the CD28 expression levels was 31.98 and 33.89 and 35.83; the Lilrb4 expression levels was 179.28 and 174.41 and 160.09; the Nupr1 expression levels is 11.81 and 14.26 and 21.7. In assay [6] (setting [8]), the Tcf7 expression levels is 9.54 and 8.42 and 8.72; the Tgfb3 expression levels was 8.53 and 5.51 and 5.9.

B1: IL-27: heterodimeric cytokine of the IL-12 family composed of EBI3 and IL-27p28 (protein, UniProt Q14213 21-229; Q8NEV9 29-243, looked up)
Interleukin-27 subunit beta: RKGPPAALTLPRVQCRASRYPIAVDCSWTLPPAPNSTSPVSFIATYRLGMAARGHSWPCLQQTPTSTSCTITDVQLFSMAPYVLNVTAVHPWGSSSSFVPFITEHIIKPDPPEGVRLSPLAERQLQVQWEPPGSWPFPEIFSLKYWIRYKRQGAARFHRVGPIEATSFILRAVRPRARYYVQVAAQDLTDYGELSDWSLPATATMSLGK
Interleukin-27 subunit alpha: FPRPPGRPQLSLQELRREFTVSLHLARKLLSEVRGQAHRFAESHLPGVNLYLLPLGEQLPDVSLTFQAWRRLSDPERLCFISTTLQPFHALLGGLGTQGRWTNMERMQLWAMRLDLRDLQRHLRFQVLAAGFNLPEEEEEEEEEEEEERKGLLPGALGSALQGPAQVSWPQLLSTYRLLHSLELVLSRAVRELLLLSKAGHSVWPLGFPTLSPQP
Take B1: in assay [6] (setting [9]), the CD28 expression levels is 48.93 and 37.2 and 39.84; the Lilrb4 expression levels was 73.62 and 94.25 and 105.87; the Nupr1 expression levels is 11.93 and 21.86 and 19.79; the Tcf7 expression levels is 5.37 and 7.39 and 5.57. The Tcf7 expression entry in assay [7] is “dramatically reduced”.
